For 9 compounds, IC50 results are on record in patent publication US12344603B2 (Genentech, Inc., priority 2020, dated 2025).

pIC50: −log10 of the molar value. Where a name gives a salt, the structure may show the parent alone.

In this assay the target is IRE1α (Homo sapiens (Human), UniProt O75460, D688N). The experiment in a line: IRE1α TR-FRET competition binding assay (IRE1α HTRF). The settings on record: TR-FRET competition binding to kinase domain of IRE1α. The procedure, abridged: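 Competition of compounds against an Alexa fluor 647 ATP-site probe (2 nM final) for the His-tagged kinase domain (0.25 nM final), detected via 2 nM Eu anti-His antibody by TR-FRET, 665 and 615 nm emission. Protein–antibody premix 1 h, 4° C; reaction 1 h, room temperature, pH 7.5 HEPES buffer.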
Sequence of IRE1α (O75460 547-977 D688N): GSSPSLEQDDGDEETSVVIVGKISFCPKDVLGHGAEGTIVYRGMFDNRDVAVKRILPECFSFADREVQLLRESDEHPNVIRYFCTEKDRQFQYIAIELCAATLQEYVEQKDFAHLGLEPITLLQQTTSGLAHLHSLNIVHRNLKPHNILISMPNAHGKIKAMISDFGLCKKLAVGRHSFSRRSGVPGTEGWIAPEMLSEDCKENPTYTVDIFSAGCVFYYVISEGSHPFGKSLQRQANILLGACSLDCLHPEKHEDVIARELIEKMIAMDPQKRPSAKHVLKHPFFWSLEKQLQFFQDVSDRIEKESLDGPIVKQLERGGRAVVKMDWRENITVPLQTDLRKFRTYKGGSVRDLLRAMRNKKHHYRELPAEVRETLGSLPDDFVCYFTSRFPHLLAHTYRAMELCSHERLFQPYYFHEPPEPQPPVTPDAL

The term pIC50 denotes the negative decadic logarithm of the IC50, by convention in mol/L. A low value points to a large IC50. `CC(C)n1c(=O)c(-c2ccc(NS(=O)(=O)CCC(F)(F)F)c(F)c2)cc2cnc(N[C@H]3CC[C@H](N4CCC4)CC3)nc21` [Compound 198, N-(4-(2-(((1,4-trans)-4-(Azetidin-1-yl)cyclohexyl)amino)-8-isopropyl-7-oxo-7,8-dihydropyrido[2,3-d]pyrimidin-6-yl)-2-fluorophenyl)-3,3,3-trifluoropropane-1-sulfonamide formate] showed a negative logarithm of the IC50 (pIC50) of 9.39.
Regarding `CC(C)n1c(=O)c(-c2cc(F)c(NS(=O)(=O)Cc3ccc(Cl)cc3)c(F)c2)cc2cnc(N[C@H]3CC[C@H](N(C)C)CC3)nc21` [Compound 116, 1-(4-Chlorophenyl)-N-(4-(2-(((1r,4r)-4-(dimethylamino)cyclohexyl)amino)-8-isopropyl-7-oxo-7,8-dihydropyrido[2,3-d]pyrimidin-6-yl)-2,6-difluorophenyl)methanesulfonamide], the pIC50 is 9.60. This pIC50 lies 0.21 log units higher than the previous one.
As for `CC(C)n1c(=O)c(-c2ccc(NS(=O)(=O)CCC(F)(F)F)c(F)c2)cc2cnc(NC3CCC(N(C)C)C(F)C3)nc21` (single isomer, unassigned) [Compound 110B, N-(4-(2-((4-(Dimethylamino)-3-fluorocyclohexyl)amino)-8-isopropyl-7-oxo-7,8-dihydropyrido[2,3-d]pyrimidin-6-yl)-2-fluorophenyl)-3,3,3-trifluoropropane-1-sulfonamide], the figure is 9.15; as for `O=c1c(-c2ccc(NS(=O)(=O)Cc3ccccc3F)c(F)c2)cc2cnc(N[C@@H]3CNC[C@@H](F)C3)nc2n1CCO` [Compound 208, N-[2-Fluoro-4-[2-[[(3S,5S)-5-fluoro-3-piperidyl]amino]-8-(2-hydroxyethyl)-7-oxo-pyrido[2,3-d]pyrimidin-6-yl]phenyl]-1-(2-fluorophenyl)methanesulfonamide], 8.92.
With `CC(C)n1c(=O)c(-c2ccc(NS(=O)(=O)CCC(F)(F)F)c(F)c2)cc2cnc(N[C@H]3CC[C@H](N(C)C4CC4)CC3)nc21` [Compound 207, N-(4-(2-(((1,4-trans)-4-(Cyclopropyl(methyl)amino)cyclohexyl)amino)-8-isopropyl-7-oxo-7,8-dihydropyrido[2,3-d]pyrimidin-6-yl)-2-fluorophenyl)-3,3,3-trifluoropropane-1-sulfonamide], the negative logarithm of the IC50 (pIC50) was 9.68.
The compound `CC(C)n1c(=O)c(-c2cc(F)c(NS(=O)(=O)Cc3ccccc3F)c(F)c2F)cc2cnc(N[C@@H]3CNC[C@@H](F)C3)nc21` [Compound 86, 1-(2-Fluorophenyl)-N-(2,3,6-trifluoro-4-(2-(((3S,5S)-5-fluoropiperidin-3-yl)amino)-8-isopropyl-7-oxo-7,8-dihydropyrido[2,3-d]pyrimidin-6-yl)phenyl)methanesulfonamide] showed a negative-log IC50 (pIC50) of 9.80. This pIC50 and that of the compound before are within 0.2 log units of each other.
As for `CC(C)n1c(=O)c(-c2ccc(NS(=O)(=O)CCC(F)(F)F)nc2)cc2cnc(N[C@H]3CC[C@H](N(C)CCF)CC3)nc21` [Compound 143, 3,3,3-Trifluoro-N-(5-(2-(((1r,4r)-4-((2-fluoroethyl)(methyl)amino)cyclohexyl)amino)-8-isopropyl-7-oxo-7,8-dihydropyrido[2,3-d]pyrimidin-6-yl)pyridin-2-yl)propane-1-sulfonamide], the figure is 9.52; as for `CC(C)n1c(=O)c(-c2ccc(NS(=O)(=O)Cc3ccccc3)nc2)nc2cnc(N[C@@H]3CNC[C@@H](F)C3)nc21` [Example 236, N-[5-[2-[[(3S,5S)-5-fluoro-3-piperidyl]amino]-8-isopropyl-7-oxo-pteridin-6-yl]-2-pyridyl]-1-phenyl-methanesulfonamide], 9.30.
As for `CC(C)n1c(=O)c(-c2ccc(NS(=O)(=O)CCC(F)(F)F)c(F)c2)cc2cnc(NC3CCC4(CC3)CN(C)C4)nc21` [Example 221, 3,3,3-Trifluoro-N-(2-fluoro-4-(8-isopropyl-2-((2-methyl-2-azaspiro[3.5]nonan-7-yl)amino)-7-oxo-7,8-dihydropyrido[2,3-d]pyrimidin-6-yl)phenyl)propane-1-sulfonamide], the figure is 9.70.
